Consider three compounds from US20040018238A1, “Biodegradable vehicles and delivery systems of biolgically active substances” (priority 2003, published 2004).

Counter-ions that a name gives are not always drawn.

Series [1] is described as follows: Solubility in water / dissolution buffer. Format: physicochemical.
Series [2] can be described thus: In vitro release of oxytetracycline from drug-loaded formulations at 37° C. in isotonic phosphate buffer containing sodium sulfite. Format: physicochemical. To be noted: for drug release / drug release (rank among plasticizers): drug 20% w/w. As to the method:
A polymer (25% w/w of 50/50 lactide-co-glycolide copolymer, inherent viscosity of 0.59) was dissolved in a minimum quantity of acetone. Pure polyethylene glycol 400 (PEG 400) was added to the polymer solution. The solution was stirred to yield a uniform mixture. Acetone was evaporated from the mixture by heating at 60-75° C. with constant stirring. The blank formulation was kept in a vacuum oven at 60-75° C. overnight to ensure complete removal of acetone. […] Three different concentrations of oxytetracycline base (either 10, 20 or 30% w/w) were added to the blank formulation and mixed thoroughly to ensure uniform distribution of the drug in the formulations. Drug release from the drug-loaded formulations was performed at 37° C. in isotonic phosphate buffer containing sodium sulfite as an antioxidant. […] This increase occurred because, at higher drug-loadings, more drug is available on the surface of the formulations for release. Moreover, a higher drug concentration gradient between the formulation and the dissolution medium is expected at 30% w/w drug-loading compared to the one at 10% w/w drug loading.
(§1) A polymer (25% w/w of 50/50 lactide-co-glycolide copolymer, inherent viscosity of 0.59) was dissolved in a minimum quantity of acetone. […] The resulting solutions were stirred to yield uniform mixtures. Acetone was evaporated from the mixtures by heating at 60-75° C. with constant stirring. The blank formulations were kept in a vacuum oven at 60-75° C. overnight to ensure complete removal of acetone. […] Oxytetracycline base (20% w/w) was added to each blank formulation and mixed thoroughly to ensure uniform distribution of the drug in the formulations. Drug release from the drug-loaded formulations was performed at 37° C. in isotonic phosphate buffer containing sodium sulfite as an antioxidant.
Three different concentrations (10, 20 or 25% w/w) of a polymer (50/50 lactide-co-glycolide copolymer, inherent viscosity of 0.59) were dissolved in a minimum quantity of acetone. Pure PEG 400 (90, 80 or 75% w/w) was added to the polymer solutions. The solutions were stirred to yield uniform mixtures. Acetone was evaporated from the mixtures by heating at 60-75° C. with constant stirring. The blank formulations were kept in a vacuum oven at 60-75° C. overnight to ensure complete removal of acetone. The resulting formulations obtained were matrices with varying viscosities or consistency. The formulation with 25% polymer was considerably more viscous than the one with 10% polymer. Oxytetracycline base (20% w/w) was added to each blank formulation and mixed thoroughly to ensure uniform distribution of the drug in the formulations. Drug release from the drug-loaded formulations was performed at 37° C. in isotonic phosphate buffer containing sodium sulfite as an antioxidant.
as §1, with “overmight” for “overnight”
The resulting solutions were stirred to yield uniform mixtures. Acetone was evaporated from the mixtures by heating at 60-75° C. with constant stirring. The blank formulations were kept in a vacuum oven at 60-75° C. overnight to ensure complete removal of acetone. […] Oxytetracycline base (20% w/w) was added to each blank formulation and mixed thoroughly to ensure uniform distribution of the drug in the formulations. […]

Series [3] is described as follows: In vivo release of oxytetracycline from biodegradable delivery systems in quail. As to conditions: delivery systems with varying polymer molecular weights (FIG. 16). The text has this:
FIG. 16 describes the effect of varying polymer molecular weights on in vivo release of oxytetracycline base from biodegradable delivery systems.

Series [4] is described as follows: In vitro release of naltrexone from drug-loaded formulations at 37° C. in isotonic phosphate buffer. To be noted: compared with hydrated naltrexone base; 25% 50/50 PLGA (i.v. 0.64) with pure PEG 400 or 50/50% PEG 400/TEC; drug 20% w/w. Format: physicochemical. As for the experimental part:
The solutions were stirred to yield a uniform mixture. Acetone was evaporated from the mixtures by heating at 60-75° C. with constant stirring. The blank formulations were kept in a vacuum oven at 60-75° C. overnight to ensure complete removal of acetone. […] Either hydrated naltrexone base (20% w/w) or naltrexone hydrochloride (20% w/w) was added to the blank formulations and mixed thoroughly to ensure uniform distribution of the drugs in the formulations. Drug release from the drug-loaded formulations was performed at 37° C. in isotonic phosphate buffer. […] This is because the solubility of the naltrexone hydrochloride in the dissolution buffer is much greater than that of the hydrated naltrexone base.

Turning to `CN(C)[C@@H]1C(O)=C(C(N)=O)C(=O)[C@@]2(O)C(O)=C3C(=O)c4c(O)cccc4[C@@](C)(O)[C@H]3[C@H](O)[C@@H]12` [oxytetracycline hydrochloride], the aqueous solubility entry in series [1] (hydrochloride salt compared with the base) is listed as “greater aqueous solubility”.

In the case of `CN(C)[C@@H]1C(=O)C(C(N)=O)=C(O)[C@@]2(O)C(=O)C3=C(O)c4c(O)cccc4[C@@](C)(O)[C@H]3[C@H](O)[C@@H]12` [oxytetracycline base], the drug release result in series [2] (blend of 75% PEG 400 and 25% TEC compared with 50/50% PEG 400/TEC at similar polymer to plasticizer ratio) was “considerably faster”; in series [2] (effect of decreasing polymer from 25% to 10% (PEG 400 75% to 90%), 50/50 PLGA i.v. 0.59) it was “dramatically increased the drug release”; in series [2] (effect of decreasing polymer inherent viscosity from 0.76 to 0.15, 50/50 PLGA, PEG 400) it was “dramatically increased the drug release”; in series [2] (effect of going from 0% PEG 400/100% TEC to 100% PEG 400/0% TEC, 25% w/w 50/50 PLGA (i.v. 0.59)) it was “faster drug release”; in series [2] (polymer to plasticizer ratio 1:5 (16.67% polymer) compared with 1:3 (25% polymer), PEG 400/TEC blends) it was “faster drug release”. The “cumulative amount of drug released at the end of 360 hours” value in series [2] (effect of increasing drug loading from 10 to 30% w/w, 25% w/w 50/50 PLGA (i.v. 0.59), PEG 400) is listed as “increased the cumulative amount of drug released”. In addition, the “drug release (rank among plasticizers)” value is “slowest” in series [2] (formulations prepared with ATEC, 25% w/w 50/50 PLGA (i.v. 0.59)); “fastest” in series [2] (formulations prepared with PEG 400, 25% w/w 50/50 PLGA (i.v. 0.59)); “Intermediate drug release” in series [2] (formulations prepared with TEC, 25% w/w 50/50 PLGA (i.v. 0.59)). In addition, in series [3], the in vivo release result is “desired controlled release of the OTC was achieved”.

Take `O=C1CC[C@@]2(O)[C@H]3Cc4ccc(O)c5c4[C@@]2(CCN3CC2CC2)[C@H]1O5` [naltrexone hydrochloride]: the drug release result in series [4] is on record as “considerably faster”. For the same compound, the “solubility in the dissolution buffer” value in series [1] (compared with hydrated naltrexone base, isotonic phosphate buffer) is recorded as “much greater”.
